From PubChem BioAssay (NCI)
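Each compound was tested at five concentrations against cells in 96-well plates for 48 hours. TGI marks complete inhibition of growth.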

Columns and labels:
Assay in all cases: NCI anticancer screen, dose series, 48 h
SF-268 CNS = test system: SF-268 CNS
KM12 colon = test system: KM12 colon
TK-10 renal = test system: TK-10 renal
MDA-MB-435 = test system: MDA-MB-435
NCI-H226 lung = test system: NCI-H226 lung
NCI/ADR-RES ovarian = test system: NCI/ADR-RES ovarian
UACC-62 melanoma = test system: UACC-62 melanoma
RPMI-8226 leukemia = test system: RPMI-8226 leukemia
ACHN renal = test system: ACHN renal
LOX IMVI melanoma = test system: LOX IMVI melanoma
SNB-19 CNS = test system: SNB-19 CNS
HOP-92 NSCLC = test system: HOP-92 NSCLC
OVCAR-3 ovarian = test system: OVCAR-3 ovarian
T-47D breast = test system: T-47D breast
IGROV1 ovarian = test system: IGROV1 ovarian
MOLT-4 leukemia = test system: MOLT-4 leukemia

| Compound | TGI (SF-268 CNS) [µM] | TGI (KM12 colon) [µM] | TGI (TK-10 renal) [µM] | TGI (MDA-MB-435) [µM] | TGI (NCI-H226 lung) [µM] | TGI (NCI/ADR-RES ovarian) [µM] | TGI (UACC-62 melanoma) [µM] | TGI (RPMI-8226 leukemia) [µM] | TGI (ACHN renal) [µM] | TGI (LOX IMVI melanoma) [µM] | TGI (SNB-19 CNS) [µM] | TGI (HOP-92 NSCLC) [µM] | TGI (OVCAR-3 ovarian) [µM] | TGI (T-47D breast) [µM] | TGI (IGROV1 ovarian) [µM] | TGI (MOLT-4 leukemia) [µM] |
| --- | --- | --- | --- | --- | --- | --- | --- | --- | --- | --- | --- | --- | --- | --- | --- | --- |
| CC(=O)Nc1ccc(NC(=O)CC(=O)Nc2ccc(NC(C)=O)cc2)cc1 | > 100 | > 100 | > 100 | > 100 | > 100 | > 100 | 23.4 | > 100 | > 100 | > 100 | > 100 | > 100 | > 100 | > 100 | > 100 | > 100 |
| CN1C(=O)c2ccccc2C(O)(c2ccccc2)C1(O)c1ccccc1 (configuration not stated) | > 100 | > 100 | > 100 | > 100 | > 100 | > 100 | > 100 | > 100 | > 100 | > 100 | > 100 | 97.7 | > 100 | > 100 | > 100 | > 100 |
| O=S(=O)(O)c1ccc2c(N=Nc3cccc4ccccc34)c(O)ccc2c1 | > 100 | > 100 | > 100 | > 100 | > 100 | > 100 | > 100 | > 100 | > 100 | > 100 | > 100 | > 100 | > 100 | > 100 | > 100 | > 100 |
| O=[N+]([O-])c1cc(Br)cc2cc(Cl)cnc12 | > 100 | > 100 | > 100 | > 100 | > 100 | > 100 | > 100 | > 100 | > 100 | > 100 | > 100 | 6.36 | > 100 | > 100 | 24.2 | > 100 |
| CCO/C(O)=C(/C(=N)N1CCOCC1)C(=O)Nc1cccc(C(F)(F)F)c1 | > 100 | > 100 | > 100 | > 100 | > 100 | > 100 | > 100 | > 100 | > 100 | > 100 | > 100 | > 100 | > 100 | > 100 | > 100 | > 100 |
| COc1ccccc1C1C2=C(COC2=O)Oc2cc3c(cc21)OCO3 (configuration not stated) | 85.8 | > 100 | > 90.5 | 0.947 | > 100 | > 39.8 | > 100 | > 59.2 | > 100 | > 100 | 72.3 | 97.7 | 16.7 | > 100 | > 100 | > 100 |
| COc1ccc(C=Nc2ccc(-c3nc4ccccc4s3)cc2)cc1OC | > 100 | > 100 | 69 | > 100 | 85.4 | 89.8 | 47.2 | > 100 | 70.5 | 45.5 | > 100 | 53.5 | 51.9 | 81.2 | 86.4 | 84.4 |
| CC(=O)N1C(C(=O)NN2CCOCC2)CSC1c1ccccc1 (configuration not stated) | > 100 | > 100 | > 100 | > 100 | > 100 | > 100 | > 100 | > 100 | > 100 | > 100 | > 100 | > 100 | > 100 | > 100 | > 100 | > 100 |
| CC[C@H](C)[C@H](NC(=O)N(CCC#N)CCN(CCN(C(=O)N[C@@H](Cc1ccccc1)C(=O)OC)c1ccccc1)C(=O)N[C@H](C(=O)OC)C(C)C)C(=O)OC | 44.4 | 39.7 | 38.5 | 36.3 | 48.8 | 81.7 | 28.6 | 29.1 | 26.7 | 37.4 | 35.9 | 23.3 | 39.7 | 47.2 | 45.9 | 24.7 |
| O=c1oc2ccc([N+](=O)[O-])cc2nc1/C=C(\O)c1ccccc1 | > 100 | > 100 | 93.4 | > 100 | > 100 | > 100 | > 100 | > 100 | > 100 | > 100 | > 100 | > 100 | > 100 | > 100 | > 100 | > 100 |
| COc1ccc2c(c1)CC[C@@H]1[C@@H]2CC[C@]2(C)/C(=N/OCCN3CCCC3)CC[C@@H]12 | 14.4 | 6.31 | 16.9 | 2.43 | 5.26 | 28.7 | 3.53 | 3.65 | 15.5 | 3.19 | 28.1 | 6.5 | 16.2 | 9.64 | 18.4 | 4.85 |
| Cc1cccc2c(N)c3cccc(C(=O)NCC[N+](C)(C)Cc4ccc([N+](=O)[O-])n4C)c3nc12 | 61.9 | 63.4 | > 100 | > 85.2 | 53.3 | 98.9 | > 79.6 | 52.5 | 56.1 | > 64.9 | > 100 | > 100 | > 73.1 | > 85.9 | 58.4 | 25.4 |
| O=Cc1c2c(cc3c1CC1(C3)Cc3cc4c(c(C=O)c3C1)CCCC4)CCCC2 | > 100 | > 31.6 | > 31.6 | > 31.6 | > 31.6 | > 31.6 | > 31.6 | 30.3 | > 31.6 | > 31.6 | > 100 | > 31.6 | > 31.6 | > 31.6 | > 31.6 | 23.2 |
| c1ccc(CN2CCC(=NN3CCCCC3)CC2)cc1 | > 100 | > 100 | > 100 | > 100 | > 100 | > 100 | > 100 | 66.3 | > 100 | > 100 | > 100 | > 100 | > 100 | > 100 | > 100 | > 100 |
| C/C=C/CC(C(=O)OCC)(N(C)C(=O)OC(C)(C)C)S(=O)(=O)c1ccc(C)cc1 (configuration not stated) | > 100 | > 100 | > 100 | 83 | > 100 | > 100 | > 100 | > 100 | > 100 | > 100 | > 100 | > 100 | > 100 | > 100 | > 100 | > 100 |
| CCCNC1=C2C[C@@H](C)C[C@@H](OC)[C@@H](OC(=O)CCCN)[C@H](C)/C=C(\C)[C@@H](OC(N)=O)[C@H](OC)/C=C\C=C(/C)C(=O)NC(=CC1=O)C2=O | 36.7 | 26.1 | 36.1 | 32.2 | 39.8 | 86.2 | 29.4 | 29.1 | 37.6 | > 48.3 | 29.7 | 25.8 | 24 | 28.5 | 34.8 | 19.2 |
| O=C(O)c1cc(N=Nc2ccc([N+](=O)[O-])cc2)ccc1O | > 100 | > 100 | 70 | > 100 | 79.4 | > 100 | > 100 | 53.3 | > 100 | > 100 | > 100 | 56.9 | 39.8 | > 100 | > 100 | 77 |
